Key:
[1] = target: Non-receptor tyrosine-protein kinase TNK1 (Homo sapiens) (UniProt Q13470); details: Compound concentration 1000.0 nM
[2] = target: Microtubule-associated serine/threonine-protein kinase 1 (Homo sapiens) (UniProt Q9Y2H9); details: Compound concentration 1000.0 nM
[3] = target: Megakaryocyte-associated tyrosine-protein kinase (Homo sapiens) (UniProt P42679); details: Compound concentration 1000.0 nM
[4] = target: RAF proto-oncogene serine/threonine-protein kinase (Homo sapiens) (UniProt P04049); details: Compound concentration 1000.0 nM
[5] = target: Cyclin-dependent kinase 4 (Homo sapiens) (UniProt P11802); details: Compound concentration 1000.0 nM
Sequence of Cyclin-dependent kinase 4 (Homo sapiens) (P11802 whole entry): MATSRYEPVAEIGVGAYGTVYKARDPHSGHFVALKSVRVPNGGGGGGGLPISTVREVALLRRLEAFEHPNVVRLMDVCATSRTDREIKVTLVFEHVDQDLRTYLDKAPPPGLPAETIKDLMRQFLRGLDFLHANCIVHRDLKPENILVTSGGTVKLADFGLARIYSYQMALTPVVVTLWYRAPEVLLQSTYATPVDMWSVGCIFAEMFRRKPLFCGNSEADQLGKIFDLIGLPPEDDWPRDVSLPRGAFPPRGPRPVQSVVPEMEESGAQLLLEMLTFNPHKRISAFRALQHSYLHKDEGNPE

[6] = target: Tyrosine-protein kinase Blk (Homo sapiens) (UniProt P51451); details: Compound concentration 1000.0 nM
[7] = target: Myosin light chain kinase (Homo sapiens) (UniProt Q32MK0); details: Compound concentration 1000.0 nM
[8] = target: Atypical kinase COQ8A, mitochondrial (Homo sapiens) (UniProt Q8NI60); details: Compound concentration 1000.0 nM
Sequence of Atypical kinase COQ8A, mitochondrial (Homo sapiens) (Q8NI60 163-647 limits assumed): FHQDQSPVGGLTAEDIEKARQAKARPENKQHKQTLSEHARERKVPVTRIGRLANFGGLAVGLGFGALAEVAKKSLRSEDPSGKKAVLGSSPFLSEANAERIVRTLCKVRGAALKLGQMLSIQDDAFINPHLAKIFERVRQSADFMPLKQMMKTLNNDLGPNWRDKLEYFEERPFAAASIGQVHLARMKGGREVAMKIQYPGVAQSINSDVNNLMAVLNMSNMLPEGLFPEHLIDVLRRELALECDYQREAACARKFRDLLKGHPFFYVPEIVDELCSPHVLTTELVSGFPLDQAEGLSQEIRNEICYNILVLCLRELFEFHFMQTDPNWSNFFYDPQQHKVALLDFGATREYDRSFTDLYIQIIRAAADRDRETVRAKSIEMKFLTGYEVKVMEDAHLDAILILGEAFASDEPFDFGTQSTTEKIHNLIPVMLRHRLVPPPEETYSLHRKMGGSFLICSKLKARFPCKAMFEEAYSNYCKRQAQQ

[9] = target: Myotonin-protein kinase (Homo sapiens) (UniProt Q09013); details: Compound concentration 1000.0 nM
[10] = target: Serine/threonine-protein kinase mTOR (Homo sapiens) (UniProt P42345); details: Compound concentration 1000.0 nM
[11] = target: Casein kinase II subunit alpha (Homo sapiens) (UniProt P68400); details: Compound concentration 1000.0 nM
[12] = target: Phosphatidylinositol 4-phosphate 5-kinase type-1 gamma (Homo sapiens) (UniProt O60331); details: Compound concentration 1000.0 nM
[13] = target: Mitogen-activated protein kinase 8 (Homo sapiens) (UniProt P45983); details: Compound concentration 1000.0 nM
[14] = target: Tyrosine-protein kinase CSK (Homo sapiens) (UniProt P41240); details: Compound concentration 1000.0 nM
Sequence of Tyrosine-protein kinase CSK (Homo sapiens) (P41240 2-450 limits assumed): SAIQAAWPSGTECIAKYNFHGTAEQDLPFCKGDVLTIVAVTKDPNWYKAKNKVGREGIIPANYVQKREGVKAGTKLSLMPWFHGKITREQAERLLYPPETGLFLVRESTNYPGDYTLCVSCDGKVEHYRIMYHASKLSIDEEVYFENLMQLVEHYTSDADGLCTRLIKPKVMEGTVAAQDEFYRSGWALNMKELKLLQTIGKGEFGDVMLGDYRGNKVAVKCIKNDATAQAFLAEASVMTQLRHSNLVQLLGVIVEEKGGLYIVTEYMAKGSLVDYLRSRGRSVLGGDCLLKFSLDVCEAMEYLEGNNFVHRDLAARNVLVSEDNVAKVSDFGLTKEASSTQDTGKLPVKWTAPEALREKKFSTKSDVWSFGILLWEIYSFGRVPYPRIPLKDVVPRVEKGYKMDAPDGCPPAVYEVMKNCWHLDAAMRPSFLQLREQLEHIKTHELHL

[15] = target: MAP kinase-interacting serine/threonine-protein kinase 2 (Homo sapiens) (UniProt Q9HBH9); details: Compound concentration 1000.0 nM
Sequence of MAP kinase-interacting serine/threonine-protein kinase 2 (Homo sapiens) (Q9HBH9 whole entry, looked up): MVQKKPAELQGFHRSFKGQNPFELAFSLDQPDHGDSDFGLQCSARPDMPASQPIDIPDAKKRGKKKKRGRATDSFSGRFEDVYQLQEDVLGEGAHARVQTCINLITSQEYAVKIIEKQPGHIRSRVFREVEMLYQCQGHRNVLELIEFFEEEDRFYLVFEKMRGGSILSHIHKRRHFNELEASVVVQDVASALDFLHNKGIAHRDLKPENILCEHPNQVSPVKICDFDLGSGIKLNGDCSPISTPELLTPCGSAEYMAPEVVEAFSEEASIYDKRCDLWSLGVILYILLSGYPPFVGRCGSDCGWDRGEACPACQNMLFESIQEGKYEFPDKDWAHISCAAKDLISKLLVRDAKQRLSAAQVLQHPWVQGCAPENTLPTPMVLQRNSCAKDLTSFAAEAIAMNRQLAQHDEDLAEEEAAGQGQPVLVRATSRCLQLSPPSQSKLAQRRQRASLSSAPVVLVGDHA

[16] = target: Mitogen-activated protein kinase 14 (Homo sapiens) (UniProt Q16539); details: Compound concentration 1000.0 nM
[17] = tested on: Receptor-type tyrosine-protein kinase FLT3 (Homo sapiens), P36888 [K663Q]; details: Compound concentration 1000.0 nM
[18] = target: Serine/threonine-protein kinase RIO3 (Homo sapiens) (UniProt O14730); details: Compound concentration 1000.0 nM
[19] = target: Bone morphogenetic protein receptor type-2 (Homo sapiens) (UniProt Q13873); details: Compound concentration 1000.0 nM
[20] = target: Serine/threonine-protein kinase Nek3 (Homo sapiens) (UniProt P51956); details: Compound concentration 1000.0 nM
[21] = target: MAP kinase-activated protein kinase 5 (Homo sapiens) (UniProt Q8IW41); details: Compound concentration 1000.0 nM
Sequence of MAP kinase-activated protein kinase 5 (Homo sapiens) (Q8IW41 whole entry): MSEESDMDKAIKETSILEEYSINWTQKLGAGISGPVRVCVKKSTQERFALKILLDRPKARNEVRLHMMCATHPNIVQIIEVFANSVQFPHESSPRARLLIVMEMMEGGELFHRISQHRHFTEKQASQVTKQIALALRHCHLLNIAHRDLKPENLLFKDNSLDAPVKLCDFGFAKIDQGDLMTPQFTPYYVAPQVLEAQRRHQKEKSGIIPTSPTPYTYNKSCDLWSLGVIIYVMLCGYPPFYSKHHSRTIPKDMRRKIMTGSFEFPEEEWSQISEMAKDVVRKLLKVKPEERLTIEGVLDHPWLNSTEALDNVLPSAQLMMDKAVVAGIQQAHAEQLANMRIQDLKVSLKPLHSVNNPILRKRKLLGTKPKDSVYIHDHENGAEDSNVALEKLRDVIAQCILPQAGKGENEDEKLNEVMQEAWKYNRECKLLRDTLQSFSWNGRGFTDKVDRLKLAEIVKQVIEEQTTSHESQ

[22] = target: T1, 5-hydroxytryptamine receptor 3A (Homo sapiens) (UniProt P46098); details: Compound concentration 10.0 uM
T1 sequence (whole entry): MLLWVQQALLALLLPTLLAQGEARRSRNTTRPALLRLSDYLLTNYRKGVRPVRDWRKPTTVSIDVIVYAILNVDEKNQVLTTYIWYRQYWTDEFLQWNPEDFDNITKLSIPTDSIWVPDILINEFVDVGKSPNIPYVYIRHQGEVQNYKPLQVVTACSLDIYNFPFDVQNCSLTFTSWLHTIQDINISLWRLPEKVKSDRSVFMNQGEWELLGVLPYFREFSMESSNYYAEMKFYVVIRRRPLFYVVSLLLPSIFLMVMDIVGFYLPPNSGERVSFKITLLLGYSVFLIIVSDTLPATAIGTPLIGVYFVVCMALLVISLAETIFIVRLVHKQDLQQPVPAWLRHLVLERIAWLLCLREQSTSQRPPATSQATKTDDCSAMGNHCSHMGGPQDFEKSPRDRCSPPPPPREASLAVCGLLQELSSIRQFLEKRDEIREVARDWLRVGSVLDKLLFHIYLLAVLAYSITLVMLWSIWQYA

[23] = target: Serine/threonine-protein kinase PAK 1 (Homo sapiens) (UniProt Q13153); details: Compound concentration 1000.0 nM
Sequence of Serine/threonine-protein kinase PAK 1 (Homo sapiens) (Q13153 whole entry): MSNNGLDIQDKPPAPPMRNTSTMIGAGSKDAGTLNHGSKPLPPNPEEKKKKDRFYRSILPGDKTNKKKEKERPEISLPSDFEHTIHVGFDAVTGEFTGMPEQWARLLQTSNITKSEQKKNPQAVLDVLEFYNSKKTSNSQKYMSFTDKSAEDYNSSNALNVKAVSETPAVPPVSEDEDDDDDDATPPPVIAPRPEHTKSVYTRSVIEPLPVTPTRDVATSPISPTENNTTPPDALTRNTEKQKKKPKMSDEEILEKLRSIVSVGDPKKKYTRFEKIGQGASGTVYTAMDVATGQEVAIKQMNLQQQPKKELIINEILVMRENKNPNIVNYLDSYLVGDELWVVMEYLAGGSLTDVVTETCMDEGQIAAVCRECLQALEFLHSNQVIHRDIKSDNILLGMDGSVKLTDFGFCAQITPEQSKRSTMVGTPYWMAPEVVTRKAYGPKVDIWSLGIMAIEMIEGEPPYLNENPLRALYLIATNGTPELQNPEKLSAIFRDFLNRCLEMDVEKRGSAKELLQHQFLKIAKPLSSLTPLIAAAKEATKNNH

[24] = target: Ephrin type-A receptor 5 (Homo sapiens) (UniProt P54756); details: Compound concentration 1000.0 nM
Sequence of Ephrin type-A receptor 5 (Homo sapiens) (P54756 whole entry): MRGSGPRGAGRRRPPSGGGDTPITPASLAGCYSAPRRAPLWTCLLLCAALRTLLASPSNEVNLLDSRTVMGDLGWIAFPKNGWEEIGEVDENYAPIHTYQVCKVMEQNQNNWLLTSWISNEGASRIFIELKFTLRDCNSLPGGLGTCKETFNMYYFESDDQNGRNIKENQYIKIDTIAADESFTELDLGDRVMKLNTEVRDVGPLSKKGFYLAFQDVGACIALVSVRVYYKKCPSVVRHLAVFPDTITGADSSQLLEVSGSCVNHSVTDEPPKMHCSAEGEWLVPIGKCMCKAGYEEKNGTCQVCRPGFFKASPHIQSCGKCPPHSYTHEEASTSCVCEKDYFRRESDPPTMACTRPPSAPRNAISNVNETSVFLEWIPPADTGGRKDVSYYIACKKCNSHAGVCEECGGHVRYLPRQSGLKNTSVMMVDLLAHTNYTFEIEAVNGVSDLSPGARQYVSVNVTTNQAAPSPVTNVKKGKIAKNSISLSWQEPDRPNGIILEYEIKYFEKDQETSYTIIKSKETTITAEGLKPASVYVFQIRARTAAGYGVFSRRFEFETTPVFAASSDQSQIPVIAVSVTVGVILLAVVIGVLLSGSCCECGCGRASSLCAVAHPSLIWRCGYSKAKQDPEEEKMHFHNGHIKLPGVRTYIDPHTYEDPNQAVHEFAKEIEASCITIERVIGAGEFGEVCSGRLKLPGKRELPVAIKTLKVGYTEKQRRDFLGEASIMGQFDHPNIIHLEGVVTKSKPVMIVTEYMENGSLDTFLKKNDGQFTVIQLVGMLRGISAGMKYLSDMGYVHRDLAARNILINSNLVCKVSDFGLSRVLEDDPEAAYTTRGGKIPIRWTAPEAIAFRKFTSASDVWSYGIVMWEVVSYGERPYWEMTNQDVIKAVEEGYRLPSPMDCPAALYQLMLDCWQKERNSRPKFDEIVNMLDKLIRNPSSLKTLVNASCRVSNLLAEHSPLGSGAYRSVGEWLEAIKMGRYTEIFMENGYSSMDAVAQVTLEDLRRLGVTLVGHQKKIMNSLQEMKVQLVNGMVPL

[25] = target: High affinity nerve growth factor receptor (Homo sapiens) (UniProt P04629); details: Compound concentration 1000.0 nM
[26] = tested on: Hepatocyte growth factor receptor (Homo sapiens), P08581 [Y1235D]; details: Compound concentration 1000.0 nM
[27] = target: Calcium/calmodulin-dependent protein kinase type IV (Homo sapiens) (UniProt Q16566); details: Compound concentration 1000.0 nM
[28] = target: Serine/threonine-protein kinase pim-3 (Homo sapiens) (UniProt Q86V86); details: Compound concentration 1000.0 nM
[29] = target: Muscarinic acetylcholine receptor M5 (Homo sapiens) (UniProt P08912); details: Compound concentration 10.0 uM
[30] = target: 5'-AMP-activated protein kinase catalytic subunit alpha-2 (Homo sapiens) (UniProt P54646); details: Compound concentration 1000.0 nM
Sequence of 5'-AMP-activated protein kinase catalytic subunit alpha-2 (Homo sapiens) (P54646 whole entry, looked up): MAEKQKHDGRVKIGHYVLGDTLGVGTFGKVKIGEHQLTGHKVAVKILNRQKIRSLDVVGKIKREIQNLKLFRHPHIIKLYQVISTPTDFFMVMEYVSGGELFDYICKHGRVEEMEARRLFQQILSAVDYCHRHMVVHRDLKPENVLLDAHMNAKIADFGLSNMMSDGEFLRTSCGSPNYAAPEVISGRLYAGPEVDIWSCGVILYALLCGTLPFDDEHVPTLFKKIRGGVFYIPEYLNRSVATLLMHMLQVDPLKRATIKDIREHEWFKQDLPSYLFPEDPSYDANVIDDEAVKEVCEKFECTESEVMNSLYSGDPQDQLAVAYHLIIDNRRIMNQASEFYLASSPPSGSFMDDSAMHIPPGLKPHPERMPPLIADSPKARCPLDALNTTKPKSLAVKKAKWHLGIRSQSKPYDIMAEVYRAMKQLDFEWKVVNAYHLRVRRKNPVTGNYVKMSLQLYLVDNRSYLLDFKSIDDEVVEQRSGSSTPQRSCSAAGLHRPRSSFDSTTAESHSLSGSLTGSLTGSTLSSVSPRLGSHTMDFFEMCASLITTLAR

[31] = target: Beta-3 adrenergic receptor (Homo sapiens) (UniProt P13945); details: Compound concentration 10.0 uM
[32] = target: Tyrosine-protein kinase ABL1 (Homo sapiens) (UniProt P00519); details: Compound concentration 1000.0 nM
[33] = target: Serine/threonine-protein kinase MAK (Homo sapiens) (UniProt P20794); details: Compound concentration 1000.0 nM
[34] = target: Activin receptor type-2B (Homo sapiens) (UniProt Q13705); details: Compound concentration 1000.0 nM
[35] = target: Cyclin-dependent kinase 7 (Homo sapiens) (UniProt P50613); details: Compound concentration 1000.0 nM
[36] = target: Tyrosine-protein kinase ITK/TSK (Homo sapiens) (UniProt Q08881); details: Compound concentration 1000.0 nM

Sequence of Megakaryocyte-associated tyrosine-protein kinase (Homo sapiens) (P42679 whole entry): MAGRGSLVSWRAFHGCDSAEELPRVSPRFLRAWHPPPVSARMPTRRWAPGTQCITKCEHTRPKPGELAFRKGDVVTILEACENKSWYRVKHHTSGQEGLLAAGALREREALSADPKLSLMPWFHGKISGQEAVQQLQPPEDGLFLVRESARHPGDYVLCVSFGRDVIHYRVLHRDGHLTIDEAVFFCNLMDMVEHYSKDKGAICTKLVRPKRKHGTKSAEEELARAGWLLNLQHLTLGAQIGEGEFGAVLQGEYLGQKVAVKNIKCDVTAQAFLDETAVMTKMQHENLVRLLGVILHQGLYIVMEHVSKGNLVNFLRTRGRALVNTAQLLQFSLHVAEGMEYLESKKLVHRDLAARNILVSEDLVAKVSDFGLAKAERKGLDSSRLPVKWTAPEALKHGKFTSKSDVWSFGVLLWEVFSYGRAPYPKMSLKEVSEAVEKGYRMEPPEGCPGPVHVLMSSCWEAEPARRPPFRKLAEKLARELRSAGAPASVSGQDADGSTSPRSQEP

SMILES	residual activity [1] [%]	residual activity [2] [%]	residual activity [3] [%]	residual activity [4] [%]	residual activity [5] [%]	residual activity [6] [%]	residual activity [7] [%]	residual activity [8] [%]	residual activity [9] [%]	residual activity [10] [%]	residual activity [11] [%]	residual activity [12] [%]	residual activity [13] [%]	residual activity [14] [%]	residual activity [15] [%]	residual activity [16] [%]	residual activity [17] [%]	residual activity [18] [%]	residual activity [19] [%]	residual activity [20] [%]	further results
CC(=O)N1CCC(c2ccc(C(=O)NC3=NCCN3)cc2C(F)(F)F)CC1 [BI 0054]	84	87	100	100	98	94	100	95	100	67	86	99	84	100	100	100	100	98	100	63	residual activity [21]: 88%; inhibition [22]: -4.49%; residual activity [23]: 98%; residual activity [24]: 100%; residual activity [25]: 100%; residual activity [26]: 100%; residual activity [27]: 92%; residual activity [28]: 100%; inhibition [29]: 14.9%; residual activity [30]: 100%; inhibition [31]: 8.52%; residual activity [32]: 83%; residual activity [33]: 61%; residual activity [34]: 100%; residual activity [35]: 89%; residual activity [36]: 91%
CC(=O)N1CCC(c2ccc(C(=O)NC(=N)N)cc2C(F)(F)F)CC1 [BI 9627]	89	49	100	100	100	100	100	96	100	100	95	100	73	100	100	100	100	100	100	79	residual activity [21]: 100%; inhibition [22]: -6.68%; residual activity [23]: 100%; residual activity [24]: 99%; residual activity [25]: 100%; residual activity [26]: 100%; residual activity [27]: 93%; residual activity [28]: 100%; inhibition [29]: -8.36%; residual activity [30]: 100%; inhibition [31]: 5.47%; residual activity [32]: 89%; residual activity [33]: 79%; residual activity [34]: 100%; residual activity [35]: 86%; residual activity [36]: 100%

— ChEMBL document CHEMBL4507279, “Data for DCP probe BI-9627” (2021)
